Here are results for 26 compounds from patent US9932340B2, “Substituted indoles” (AbbVie Inc., priority 2014, dated 2018).

The IC50 is the point on the concentration scale where inhibition reaches its midpoint.

Chain of SUV420H1 enzyme (Q4FZB7 whole entry): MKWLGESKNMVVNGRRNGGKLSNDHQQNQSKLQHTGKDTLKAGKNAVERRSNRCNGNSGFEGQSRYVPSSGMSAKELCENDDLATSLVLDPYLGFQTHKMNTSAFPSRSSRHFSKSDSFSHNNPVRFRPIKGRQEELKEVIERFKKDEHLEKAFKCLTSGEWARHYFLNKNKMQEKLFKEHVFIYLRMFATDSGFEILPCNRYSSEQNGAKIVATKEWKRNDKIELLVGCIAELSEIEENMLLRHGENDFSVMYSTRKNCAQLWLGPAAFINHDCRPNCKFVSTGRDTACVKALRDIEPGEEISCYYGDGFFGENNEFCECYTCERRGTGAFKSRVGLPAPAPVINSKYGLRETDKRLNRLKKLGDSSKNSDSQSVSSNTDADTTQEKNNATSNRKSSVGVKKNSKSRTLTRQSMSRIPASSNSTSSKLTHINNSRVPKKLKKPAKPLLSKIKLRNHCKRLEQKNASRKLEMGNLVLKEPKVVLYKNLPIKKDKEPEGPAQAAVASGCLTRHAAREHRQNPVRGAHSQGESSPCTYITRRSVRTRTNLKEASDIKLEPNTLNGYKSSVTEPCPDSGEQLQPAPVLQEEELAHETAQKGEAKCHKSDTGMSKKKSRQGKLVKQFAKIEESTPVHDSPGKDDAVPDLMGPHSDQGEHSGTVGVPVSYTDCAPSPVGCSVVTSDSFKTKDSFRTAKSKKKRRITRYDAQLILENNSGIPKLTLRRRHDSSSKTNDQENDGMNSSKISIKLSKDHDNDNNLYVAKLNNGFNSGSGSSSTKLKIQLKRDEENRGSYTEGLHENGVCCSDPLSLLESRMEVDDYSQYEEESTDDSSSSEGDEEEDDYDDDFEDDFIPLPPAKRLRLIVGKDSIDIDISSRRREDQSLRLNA

For this test, the target named is SUV420H1 enzyme (Homo sapiens, UniProt Q4FZB7). Kind of test: TR-FRET SAH SUV420H1 enzyme inhibition assay. It counts as biochemical. The settings on record: Histone Peptide H4(8-30)me1 and SAM, overnight at room temp, TR-FRET detection of SAH, read-out: TR-FRET SAH_SUV420H1 IC50. The essentials:
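SUV420H1 (90 nM) preincubated 30 min with compound (3-fold dilutions, 50 to 0.00075 μM), then H4(8-30)me1 peptide 5 nM and SAM 4 nM added, overnight at room temp. SAH product detected by TR-FRET with Tb anti-SAH antibody and Oregon Green-SAH in RIPA buffer, 4 h; IC50 from Hill fit, asymptotes fixed 0-100%.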
In general terms: In TR-FRET formats the signal depends on donor and acceptor labels being close together.
Turning to `N#Cc1ccc(C(=O)NCc2cc3cc(Cl)cc(Cn4cnc5c(N)ncnc54)c3[nH]2)c(Cl)c1` [Example 276, N-({7-[(6-amino-9H-purin-9-yl)methyl]-5-chloro-1H-indol-2-yl}methyl)-2-chloro-4-cyanobenzamide], the IC50 stood at 0.039 µM.
Turning to `CS(=O)(=O)Nc1cccc(-c2cc(Cn3cnc4c(N)ncnc43)c3[nH]c(CN)cc3c2)c1` [Example 42, N-(3-{2-(aminomethyl)-7-[(6-amino-9H-purin-9-yl)methyl]-1H-indol-5-yl}phenyl)methanesulfonamide], the IC50 amounted to 0.45 µM.
Under `Cc1c(C)n(C)c2ccc(C(=O)NCc3cc4cc(Cl)cc(Cn5cnc6c(N)ncnc65)c4[nH]3)cc12` [Example 378, N-({7-[(6-amino-9H-purin-9-yl)methyl]-5-chloro-1H-indol-2-yl}methyl)-1,2,3-trimethyl-1H-indole-5-carboxamide] stands 6.26 µM.
With `CN1CCN(Cc2ccc(-c3cc(Cn4cnc5c(N)ncnc54)c4[nH]c(CN)cc4c3)cc2)CC1` [Example 54, 9-{[2-(aminomethyl)-5-{4-[(4-methylpiperazin-1-yl)methyl]phenyl}-1H-indol-7-yl]methyl}-9H-purin-6-amine] the figure was 1.18 µM.
Take `Nc1ncnc2c1ncn2Cc1cc(Cl)cc2cc(CNC(=O)c3ccc4occc4c3)[nH]c12` [Example 355, N-({7-[(6-amino-9H-purin-9-yl)methyl]-5-chloro-1H-indol-2-yl}methyl)-1-benzofuran-5-carboxamide]: the IC50 came to 4.87 µM.
As for `CN(C)c1ccc(CC(=O)NCc2cc3cc(Cl)cc(Cn4cnc5c(N)ncnc54)c3[nH]2)cc1` [Example 317, N-({7-[(6-amino-9H-purin-9-yl)methyl]-5-chloro-1H-indol-2-yl}methyl)-2-[4-(dimethylamino)phenyl]acetamide], the half-inhibitory concentration (IC50) was found to be 4.5 µM.
With `COc1ccc(C(=O)NCc2cc3cc(Cl)cc(Cn4cnc5c(N)ncnc54)c3[nH]2)cc1` [Example 258, N-({7-[(6-amino-9H-purin-9-yl)methyl]-5-chloro-1H-indol-2-yl}methyl)-4-methoxybenzamide], the IC50 was 4.58 µM.
Under `CN(C)c1ccc(C(=O)NCc2cc3cc(Cl)cc(Cn4cnc5c(N)ncnc54)c3[nH]2)cc1` [Example 302, N-({7-[(6-amino-9H-purin-9-yl)methyl]-5-chloro-1H-indol-2-yl}methyl)-4-(dimethylamino)benzamide] stands above 50 µM; under `C=C(C)c1ccc2cc(CN)[nH]c2c1Cn1cnc2c(N)ncnc21` [Example 60, 9-{[2-(aminomethyl)-6-(prop-1-en-2-yl)-1H-indol-7-yl]methyl}-9H-purin-6-amine], 38.4 µM.
With `CS(=O)(=O)Nc1ccc(-c2ccc(Cn3cnc4c(N)ncnc43)c3[nH]c(CN)cc23)cc1` [Example 85, N-(4-{2-(aminomethyl)-7-[(6-amino-9H-purin-9-yl)methyl]-1H-indol-4-yl}phenyl)methanesulfonamide] the figure was 0.605 µM; with `Cc1cccc(F)c1CNCc1cc2cc(Cl)cc(Cn3cnc4c(N)ncnc43)c2[nH]1` [Example 244, 9-[(5-chloro-2-{[(2-fluoro-6-methylbenzyl)amino]methyl}-1H-indol-7-yl)methyl]-9H-purin-6-amine], 1.94 µM.
In the case of `CC(C)C(=O)NCc1cc2cc(Cl)cc(Cn3cnc4c(N)ncnc43)c2[nH]1` [Example 99, N-({7-[(6-amino-9H-purin-9-yl)methyl]-5-chloro-1H-indol-2-yl}methyl)-2-methylpropanamide], the IC50 is 25.1 µM.
Regarding `CC(N)c1cc2cc(Cl)cc(Cn3cnc4c(N)ncnc43)c2[nH]1` (centres unmarked) [Example 88, 9-{[2-(1-aminoethyl)-5-chloro-1H-indol-7-yl]methyl}-9H-purin-6-amine], the half-maximal inhibitory concentration (IC50) was 1.43 µM.
With `Nc1ncnc2c1ncn2Cc1cc(Cl)cc2cc(CNC(=O)c3cccc(Cl)c3)[nH]c12` [Example 222, N-({7-[(6-amino-9H-purin-9-yl)methyl]-5-chloro-1H-indol-2-yl}methyl)-3-chlorobenzamide] the figure was 3.54 µM.
`Nc1ncnc2c1ncn2Cc1cc(Cl)cc2cc(CNC(=O)c3ccc(F)cc3)[nH]c12` [Example 223, N-({7-[(6-amino-9H-purin-9-yl)methyl]-5-chloro-1H-indol-2-yl}methyl)-4-fluorobenzamide]: the half-inhibitory concentration (IC50) is 8.25 µM.
Under `Cc1nc(C)c(C(=O)NCc2cc3cc(Cl)cc(Cn4cnc5c(N)ncnc54)c3[nH]2)s1` [Example 161, N-({7-[(6-amino-9H-purin-9-yl)methyl]-5-chloro-1H-indol-2-yl}methyl)-2,4-dimethyl-1,3-thiazole-5-carboxamide] stands 0.856 µM; under `COc1ccccc1CNCc1cc2cc(Cl)cc(Cn3cnc4c(N)ncnc43)c2[nH]1` [Example 250, 9-[(5-chloro-2-{[(2-methoxybenzyl)amino]methyl}-1H-indol-7-yl)methyl]-9H-purin-6-amine], 4.44 µM.
Under `Cn1ccnc1C(=O)NCc1cc2cc(Cl)cc(Cn3cnc4c(N)ncnc43)c2[nH]1` [Example 154, N-({7-[(6-amino-9H-purin-9-yl)methyl]-5-chloro-1H-indol-2-yl}methyl)-1-methyl-1H-imidazole-2-carboxamide] stands 4.77 µM; under `Cc1cccc(-c2cc(Cn3cnc4c(N)ncnc43)c3[nH]c(CN)cc3c2)c1` [Example 31, 9-{[2-(aminomethyl)-5-(3-methylphenyl)-1H-indol-7-yl]methyl}-9H-purin-6-amine], 0.901 µM.
Consider `Cc1nn(C)cc1C(=O)NCc1cc2cc(Cl)cc(Cn3cnc4c(N)ncnc43)c2[nH]1` [Example 184, N-({7-[(6-amino-9H-purin-9-yl)methyl]-5-chloro-1H-indol-2-yl}methyl)-1,3-dimethyl-1H-pyrazole-4-carboxamide], for which the IC50 worked out at 0.84 µM.
Under `NCc1cc2cccc(Cn3cnc4c(N)ncnc43)c2[nH]1` [Example 8, 9-{[2-(aminomethyl)-1H-indol-7-yl]methyl}-9H-purin-6-amine] stands 2.82 µM; under `Cc1ccccc1-c1ccc(Cn2cnc3c(N)ncnc32)c2[nH]c(CN)cc12` [Example 77, 9-{[2-(aminomethyl)-4-(2-methylphenyl)-1H-indol-7-yl]methyl}-9H-purin-6-amine], 2.63 µM.
Under `CC(=O)N1CCC=C(c2cc(Cn3cnc4c(N)ncnc43)c3[nH]c(CNC(=O)c4ccc(C#N)cc4Cl)cc3c2)C1` [Example 280] stands 0.0419 µM.
For the compound `COCCC(=O)NCc1cc2cc(Cl)cc(Cn3cnc4c(N)ncnc43)c2[nH]1` [Example 100, N-({7-[(6-amino-9H-purin-9-yl)methyl]-5-chloro-1H-indol-2-yl}methyl)-3-methoxypropanamide], the IC50 was found to be 10.9 µM.
With `Cc1noc(C)c1C(=O)NCc1cc2cc(-c3cccc(N4CCOCC4)c3)cc(Cn3cnc4c(N)ncnc43)c2[nH]1` [Example 179, N-({7-[(6-amino-9H-purin-9-yl)methyl]-5-[3-(morpholin-4-yl)phenyl]-1H-indol-2-yl}methyl)-3,5-dimethyl-1,2-oxazole-4-carboxamide] the figure was 0.365 µM.
As for `Cc1sccc1C(=O)NCc1cc2cc(Cl)cc(Cn3cnc4c(N)ncnc43)c2[nH]1` [Example 156, N-({7-[(6-amino-9H-purin-9-yl)methyl]-5-chloro-1H-indol-2-yl}methyl)-2-methylthiophene-3-carboxamide], the IC50 amounted to 7.92 µM.
